Results taken from patent US12655116B2, “Substituted isophthalic acid diamides” (Bayer Aktiengesellschaft, priority 2020, dated 2026).

Assays:
DIGSA [1] = test: Post-emergence herbicidal action against DIGSA; format: in vivo, Digitaria sanguinalis
Method: (§1) Seeds of monocotyledonous and dicotyledonous weed and crop plants are laid out in sandy loam soil in wood-fiber pots, covered with soil and cultivated in a greenhouse under good growth conditions. 2 to 3 weeks after sowing, the test plants are treated at the one-leaf stage. The compounds of the invention, formulated in the form of wettable powders (WP) or as emulsion concentrates (EC), are then sprayed onto the green parts of the plants in the form of an aqueous suspension or emulsion at a water application rate equivalent to 600 to 800 l/ha, with addition of 0.2% wetting agent. After the test plants have been left to stand in the greenhouse under optimal growth conditions for about 3 weeks, the action of the preparations is assessed visually in comparison to untreated controls (herbicidal action in percent (%): 100% activity=the plants have died, 0% activity=like control plants). […] The tables below illustrate, in an illustrative manner, the post-emergence herbicidal action of the compounds of the invention, the herbicidal activity being stated in percent.

AMARE [2] = test: Post-emergence herbicidal action against AMARE; format: in vivo, Amaranthus retroflexus; details: 20 g/ha, visual assessment about 3 weeks after treatment, 100% = plants have died, 0% = like control plants; for pest or weed control at 20 g/ha: Amaranthus retroflexus, 504 h
Method: as §1

MATIN [3] = test: Pre-emergence herbicidal action against MATIN; format: in vivo, Matricaria inodora; details: for pest or weed control at 80 g/ha: Tripleurospermum inodorum, 504 h
Source text: (§2) Seeds of monocotyledonous and dicotyledonous weed plants and crop plants are laid out in sandy loam soil in wood-fiber pots and covered with soil. The compounds of the invention, formulated in the form of wettable powders (WP) or as emulsion concentrates (EC), are then applied to the surface of the covering soil in the form of an aqueous suspension or emulsion at a water application rate equivalent to 600 to 800 l/ha, with addition of 0.2% wetting agent. After the treatment, the pots are placed in a greenhouse and kept under good growth conditions for the trial plants. The damage to the test plants is scored visually after a test period of 3 weeks by comparison with untreated controls (herbicidal activity in percent (%): 100% activity=the plants have died, 0% activity=like control plants). […] The tables below illustrate, in an illustrative manner, the post-emergence herbicidal action of the compounds of the invention, the herbicidal activity being stated in percent.

DIGSA [4] = test: Pre-emergence herbicidal action against DIGSA; format: in vivo, Digitaria sanguinalis
Source text: as §2

SETVI [5] = test: Post-emergence herbicidal action against SETVI; format: in vivo, Setaria viridis; details: for pest or weed control at 20 g/ha: Setaria viridis, 504 h
Method: as §1

ABUTH [6] = test: Pre-emergence herbicidal action against ABUTH; format: in vivo, Abutilon theophrasti; details: for pest or weed control at 80 g/ha: Abutilon theophrasti, 504 h; for pest or weed control at 80 g/ha / Pre-emergence action against ABUTH (herbicidal activity): scored visually after 3 weeks vs untreated controls (100% = plants have died, 0% = like control plants), 80 g/ha; for Pre-emergence action against ABUTH (herbicidal activity in percent): dosage 20 g/ha, scored visually after 3 weeks vs untreated controls, 100% = plants have died, 0% = like control plants
Source text: as §2

VERPE = test: Pre-emergence herbicidal action against VERPE; format: in vivo, Veronica persica; details: dosage 80 g/ha; for pest or weed control at 80 g/ha: Veronica persica, 504 h
Source text: as §2

AMARE [7] = test: Pre-emergence herbicidal action against AMARE; format: in vivo, Amaranthus retroflexus; details: for pest or weed control at 20 g/ha / pest or weed control at 80 g/ha: Amaranthus retroflexus, 504 h
Source text: as §2

ABUTH [8] = test: Post-emergence herbicidal action against ABUTH; format: in vivo, Abutilon theophrasti; details: visual assessment about 3 weeks after treatment vs untreated controls
Method: as §1

ECHCG [9] = test: Post-emergence herbicidal action against ECHCG; format: in vivo, Echinochloa crus-galli; details: for pest or weed control at 20 g/ha: Echinochloa crus-galli, 504 h
Method: as §1

VIOTR = test: Pre-emergence herbicidal action against VIOTR; format: in vivo, Viola tricolor; details: for pest or weed control at 80 g/ha: Viola tricolor, 504 h
Source text: as §2

ALOMY [10] = test: Post-emergence herbicidal action against ALOMY; format: in vivo, Alopecurus myosuroides; details: dosage 20 g/ha, visual assessment about 3 weeks after treatment vs untreated controls
Method: as §1

SETVI [11] = test: Pre-emergence herbicidal action against SETVI; format: in vivo, Setaria viridis; details: dosage 80 g/ha
Source text: as §2

ECHCG [12] = test: Pre-emergence herbicidal action against ECHCG; format: in vivo, Echinochloa crus-galli; details: 80 g/ha
Source text: as §2

ALOMY [13] = test: Pre-emergence herbicidal action against ALOMY; format: in vivo, Alopecurus myosuroides; details: 80 g/ha, pre-emergence, scored visually after 3 weeks vs untreated controls (100% = plants have died, 0% = like control plants)
Source text: as §2

AVEFA = test: Pre-emergence herbicidal action against AVEFA; format: in vivo, Avena fatua; details: 80 g/ha, pre-emergence
Source text: as §2

MATIN [14] = test: Post-emergence herbicidal action against MATIN; format: in vivo, Matricaria inodora; details: dosage 20 g/ha
Method: as §1

PHBPU = test: Post-emergence herbicidal action against PHBPU; format: in vivo, Pharbitis purpurea; details: dosage 20 g/ha
Method: as §1

[15] = 20 g/ha, scored visually after 3 weeks vs untreated controls, 100% = plants have died, 0% = like control plants
[16] = 80 g/ha, scored visually after 3 weeks vs untreated controls, 100% = plants have died, 0% = like control plants
[17] = 80 g/ha, scored visually after 3 weeks vs untreated controls (100% = plants have died, 0% = like control plants)

SMILES | Post-emergence action at 20 g/ha against AMARE in % (AMARE [2]) | Pre-emergence action against MATIN in % (MATIN [3]; dosage 80 g/ha) | Pre-emergence action against AMARE in % (AMARE [7]; [17]) | Pre-emergence action against VIOTR in % (VIOTR; dosage 80 g/ha) | Pre-emergence action against SETVI in % (SETVI [11]) | Pre-emergence action against MATIN in % (MATIN [3]; dosage 20 g/ha) | Pre-emergence action against DIGSA in % (DIGSA [4]; dosage 20 g/ha) | Pre-emergence action against DIGSA in % (DIGSA [4]; dosage 80 g/ha) | Pre-emergence action against ECHCG in % (ECHCG [12]) | Pre-emergence action against VERPE in % (VERPE) | Pre-emergence action against AMARE in % (AMARE [7]; [15]) | Post-emergence action against MATIN in % (MATIN [14]) | Post-emergence action against PHBPU in % (PHBPU) | Pre-emergence action against ABUTH (herbicidal activity) (ABUTH [6]) | Pre-emergence action against ABUTH (herbicidal activity in percent) (ABUTH [6]) | Post-emergence action against ABUTH in % (ABUTH [8]; dosage 20 g/ha) | Pre-emergence action against ALOMY (herbicidal activity) (ALOMY [13]) | Post-emergence action against ECHCG in % (ECHCG [9]; dosage 20 g/ha) | also measured
Cc1c(C(=O)Nc2nnnn2C)ccc(C(F)(F)F)c1C(=O)NC1COC1 [Example 1-41] |  |  |  |  |  |  |  |  |  |  |  |  |  |  |  |  |  |  | pest or weed control at 5 g/ha (DIGSA [1]; Digitaria sanguinalis, 504 h, 5 g/ha): 80%; pest or weed control at 20 g/ha (DIGSA [1]; Digitaria sanguinalis, 504 h, 20 g/ha): 90%; pest or weed control at 20 g/ha (AMARE [2]): 90%; pest or weed control at 80 g/ha (MATIN [3]; dosage 80 g/ha): 100%; pest or weed control at 80 g/ha (DIGSA [4]; Digitaria sanguinalis, 504 h, dosage 80 g/ha): 100%; pest or weed control at 20 g/ha (SETVI [5]; dosage 20 g/ha): 80%; pest or weed control at 80 g/ha (ABUTH [6]): 100%; pest or weed control at 80 g/ha (VERPE): 90%; pest or weed control at 20 g/ha (AMARE [7]; [15]): 90%; pest or weed control at 80 g/ha (AMARE [7]; [16]): 100%; pest or weed control at 5 g/ha (ABUTH [8]; Abutilon theophrasti, 504 h, dosage 5 g/ha): 80%; pest or weed control at 20 g/ha (ABUTH [8]; Abutilon theophrasti, 504 h, dosage 20 g/ha): 80%; pest or weed control at 20 g/ha (ECHCG [9]; dosage 20 g/ha): 90%; pest or weed control at 80 g/ha (VIOTR; dosage 80 g/ha): 100%
CN(C)C(=O)CNC(=O)c1c(C(F)(F)F)ccc(C(=O)Nc2nnnn2C)c1Cl [Example 1-142] | 90% | 90% | 100% | 90% |  |  |  |  |  |  |  |  |  |  |  |  |  |  | Post-emergence action against ALOMY in % (ALOMY [10]): 90%
Cn1nnnc1NC(=O)c1ccc(C(F)(F)F)c(C(=O)NCc2cccs2)c1Cl [Example 1-144] | 90% | 90% | 100% | 100% | 80% | 90% | 90% | 90% | 100% | 80% | 90% |  |  |  |  |  |  |  | Pre-emergence action against VIOTR in % (VIOTR; dosage 20 g/ha): 80%
CCNC(=O)c1c(Cl)ccc(C(=O)Nc2nnnn2C)c1Br [Example 1-350] |  |  |  |  |  |  |  |  |  |  |  |  |  |  |  |  |  |  | pest or weed control at 20 g/ha (AMARE [2]): 100%; pest or weed control at 80 g/ha (SETVI [11]; Setaria viridis, 504 h): 100%; pest or weed control at 80 g/ha (MATIN [3]; dosage 80 g/ha): 90%; pest or weed control at 80 g/ha (ECHCG [12]; Echinochloa crus-galli, 504 h): 100%; pest or weed control at 80 g/ha (ALOMY [13]; Alopecurus myosuroides, 504 h): 100%; pest or weed control at 20 g/ha (SETVI [5]; dosage 20 g/ha): 80%; pest or weed control at 80 g/ha (ABUTH [6]): 100%; pest or weed control at 80 g/ha (VERPE): 80%; pest or weed control at 20 g/ha (AMARE [7]; [15]): 100%; pest or weed control at 80 g/ha (AMARE [7]; [16]): 100%; pest or weed control at 20 g/ha (ECHCG [9]; dosage 20 g/ha): 80%; pest or weed control at 80 g/ha (VIOTR; dosage 80 g/ha): 100%; pest or weed control at 80 g/ha (AVEFA; Avena fatua, 504 h): 90%
CCn1nnnc1NC(=O)c1ccc(C(F)F)c(C(=O)Nc2ccccc2)c1Cl [Example 2-161] | 100% | 90% | 100% | 100% |  | 80% |  |  |  | 80% | 90% | 80% | 80% | 100% | 90% | 80% |  |  | 
CCn1nnnc1NC(=O)c1ccc(C(F)F)c(C(=O)NCC(F)(F)F)c1Br [Example 2-229] | 90% | 100% | 100% | 100% | 100% | 100% |  | 100% | 80% | 80% | 100% | 80% | 90% | 100% | 80% | 80% | 90% | 90% | Post-emergence action against SETVI in % (SETVI [5]; dosage 20 g/ha): 80%; Pre-emergence action against AVEFA in % (AVEFA): 90%
Cc1nnc(NC(=O)c2ccc(Br)c(C(=O)NCC(F)F)c2Cl)o1 [Example 6-145] |  |  | 100% |  | 100% |  | 90% | 100% | 90% |  | 90% |  | 80% | 100% | 100% |  | 90% |  | Post-emergence action against ALOMY in % (ALOMY [10]): 80%; Post-emergence action against SETVI in % (SETVI [5]; dosage 5 g/ha): 80%; Post-emergence action against SETVI in % (SETVI [5]; dosage 20 g/ha): 90%
Cc1nnc(NC(=O)c2ccc(C(F)F)c(C(=O)NC(C)C)c2Cl)o1 [Example 6-260] | 80% | 100% | 100% |  | 100% | 100% | 100% | 100% | 100% | 90% | 100% | 80% | 90% | 100% | 90% | 90% | 90% | 90% | Post-emergence action against DIGSA in % (DIGSA [1]; 5 g/ha): 90%; Post-emergence action against DIGSA (DIGSA [1]; 20 g/ha): 90%; Post-emergence action against ECHCG in % (ECHCG [9]; dosage 5 g/ha): 90%
Cc1nnc(NC(=O)c2ccc(C(F)F)c(C(=O)NCc3cccs3)c2Cl)o1 [Example 6-264] | 80% |  | 100% |  | 80% |  |  |  |  | 90% | 80% |  |  |  |  |  |  |  | Post-emergence action against DIGSA (DIGSA [1]; 20 g/ha): 80%
Cc1nnc(NC(=O)c2ccc(C(F)F)c(C(=O)NC(C)C3CC3)c2Br)o1 (stereo not drawn) [Example 6-267] | 90% | 100% | 100% | 80% | 80% | 90% |  |  | 80% | 90% | 90% |  | 80% | 100% | 90% | 80% | 80% | 90% | 
